Source: the supplement of paper PMC10733146

What was measured:
Test in all cases: viability relative to DMSO control (fraction); higher = less drug effect (more viable cells)
Conditions in all cases: 48 h
[1] = tested on: primary CLL patient cells (S031)
Method in brief: (§1)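 In 384-well plates with compounds pre-plated at five concentrations (one well per concentration), primary mononuclear tumour cells were plated at 4 × 10^4 cells per well. The cells came from blood or bone marrow by Ficoll isolation or from processed lymph node, and were used fresh or cryopreserved. Culture ran for 48 h at 37 °C and 5% CO2 in RPMI-1640 containing penicillin/streptomycin, L-glutamine and human serum. Viability was read as CellTiter-Glo luminescence, normalised to the median of 16 inner DMSO wells.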

[2] = tested on: primary ALL patient cells (S088)
Method in brief: as §1

[3] = tested on: primary AML patient cells (S071)
Method in brief: as §1

[4] = tested on: primary T-PLL patient cells (S008)
Method in brief: as §1

[5] = tested on: primary MCL patient cells (S041)
Method in brief: as §1

[6] = tested on: primary ALL patient cells (S048)
Method in brief: as §1

[7] = tested on: primary DLBCL patient cells (S082)
Method in brief: as §1

[8] = tested on: primary FL patient cells (S022)
Method in brief: as §1

[9] = tested on: primary MCL patient cells (S053)
Method in brief: as §1

[10] = tested on: primary AML patient cells (S055)
Method in brief: as §1

[11] = tested on: primary B-PLL patient cells (S016)
Method in brief: as §1

[12] = tested on: primary AML patient cells (S072)
Method in brief: as §1

[13] = tested on: primary MCL patient cells (S063)
Method in brief: as §1

[14] = tested on: primary AML patient cells (S060)
Method in brief: as §1

[15] = tested on: primary FL patient cells (S087)
Method in brief: as §1

[16] = tested on: primary AML patient cells (S009)
Method in brief: as §1

[17] = tested on: primary AML patient cells (S056)
Method in brief: as §1

[18] = tested on: primary MCL patient cells (S068)
Method in brief: as §1

[19] = tested on: primary AML patient cells (S079)
Method in brief: as §1

[20] = tested on: primary BL patient cells (S005)
Method in brief: as §1

O=C1c2c(O)ccc(O)c2C(=O)c2c(NCCNCCO)ccc(NCCNCCO)c21 [Mitoxantrone]
viability ([1]; 0.008 µM): 0.614 | viability ([1]; 0.04 µM): 0.383 | viability ([1]; 0.2 µM): 0.335 | viability ([1]; 1 µM): 0.0955 | viability ([1]; 5 µM): 0.0133 | viability ([2]; 0.008 µM): 0.535 | viability ([2]; 0.04 µM): 0.271 | viability ([2]; 0.2 µM): 0.216 | viability ([2]; 1 µM): 0.0605 | viability ([2]; 5 µM): 0.0218 | viability ([3]; 0.008 µM): 0.139 | viability ([3]; 0.04 µM): 0.125 | viability ([3]; 0.2 µM): 0.124 | viability ([3]; 1 µM): 0.102 | viability ([3]; 5 µM): 0.0662 | viability ([4]; 0.008 µM): 1.02 | viability ([4]; 0.04 µM): 0.961 | viability ([4]; 0.2 µM): 0.502 | viability ([4]; 1 µM): 0.0553 | viability ([4]; 5 µM): 0.0424 | viability ([5]; 0.008 µM): 0.985 | viability ([5]; 0.04 µM): 0.862 | viability ([5]; 0.2 µM): 0.569 | viability ([5]; 1 µM): 0.0728 | viability ([5]; 5 µM): 0.015 | viability ([6]; 0.008 µM): 0.449 | viability ([6]; 0.04 µM): 0.0767 | viability ([6]; 0.2 µM): 0.113 | viability ([6]; 1 µM): 0.0232 | viability ([6]; 5 µM): 0.0139 | viability ([7]; 0.008 µM): 0.886 | viability ([7]; 0.04 µM): 0.691 | viability ([7]; 0.2 µM): 0.541 | viability ([7]; 1 µM): 0.538 | viability ([7]; 5 µM): 0.0152 | viability ([8]; 0.008 µM): 0.953 | viability ([8]; 0.04 µM): 0.844 | viability ([8]; 0.2 µM): 0.804 | viability ([8]; 1 µM): 0.437 | viability ([8]; 5 µM): 0.229 | viability ([9]; 0.008 µM): 0.452 | viability ([9]; 0.04 µM): 0.326 | viability ([9]; 0.2 µM): 0.363 | viability ([9]; 1 µM): 0.236 | viability ([9]; 5 µM): 0.169 | viability ([10]; 0.008 µM): 0.978 | viability ([10]; 0.04 µM): 0.869 | viability ([10]; 0.2 µM): 0.821 | viability ([10]; 1 µM): 0.729 | viability ([10]; 5 µM): 0.234 | viability ([11]; 0.008 µM): 0.278 | viability ([11]; 0.04 µM): 0.0753 | viability ([11]; 0.2 µM): 0.0754 | viability ([11]; 1 µM): 0.0236 | viability ([11]; 5 µM): 0.014 | viability ([12]; 0.008 µM): 0.839 | viability ([12]; 0.04 µM): 0.715 | viability ([12]; 0.2 µM): 0.661 | viability ([12]; 1 µM): 0.152 | viability ([12]; 5 µM): 0.0445 | viability ([13]; 0.008 µM): 1.02 | viability ([13]; 0.04 µM): 0.812 | viability ([13]; 0.2 µM): 0.598 | viability ([13]; 1 µM): 0.246 | viability ([13]; 5 µM): 0.0145 | viability ([14]; 0.008 µM): 0.974 | viability ([14]; 0.04 µM): 0.963 | viability ([14]; 0.2 µM): 1.07 | viability ([14]; 1 µM): 0.332 | viability ([14]; 5 µM): 0.016 | viability ([15]; 0.008 µM): 0.868 | viability ([15]; 0.04 µM): 0.763 | viability ([15]; 0.2 µM): 0.717 | viability ([15]; 1 µM): 0.548 | viability ([15]; 5 µM): 0.177 | viability ([16]; 0.008 µM): 0.788 | viability ([16]; 0.04 µM): 0.651 | viability ([16]; 0.2 µM): 0.517 | viability ([16]; 1 µM): 0.156 | viability ([16]; 5 µM): 0.0504 | viability ([17]; 0.008 µM): 0.397 | viability ([17]; 0.04 µM): 0.17 | viability ([17]; 0.2 µM): 0.128 | viability ([17]; 1 µM): 0.0823 | viability ([17]; 5 µM): 0.0488 | viability ([18]; 0.008 µM): 0.814 | viability ([18]; 0.04 µM): 0.596 | viability ([18]; 0.2 µM): 0.434 | viability ([18]; 1 µM): 0.0583 | viability ([18]; 5 µM): 0.0225 | viability ([19]; 0.008 µM): 0.801 | viability ([19]; 0.04 µM): 0.655 | viability ([19]; 0.2 µM): 0.526 | viability ([19]; 1 µM): 0.133 | viability ([19]; 5 µM): 0.0172 | viability ([20]; 0.008 µM): 0.963 | viability ([20]; 0.04 µM): 1.55 | viability ([20]; 0.2 µM): 0.853 | viability ([20]; 1 µM): 0.649 | viability ([20]; 5 µM): 0.742

COc1ccc(C2=N[C@@H](c3ccc(Cl)cc3)[C@@H](c3ccc(Cl)cc3)N2C(=O)N2CCNC(=O)C2)c(OC(C)C)c1 [Nutlin-3a]
viability ([1]; 0.032 µM): 0.869 | viability ([1]; 0.16 µM): 0.929 | viability ([1]; 0.8 µM): 0.8 | viability ([1]; 4 µM): 0.451 | viability ([1]; 20 µM): 0.089 | viability ([2]; 0.032 µM): 0.954 | viability ([2]; 0.16 µM): 0.854 | viability ([2]; 0.8 µM): 0.795 | viability ([2]; 4 µM): 0.355 | viability ([2]; 20 µM): 0.133 | viability ([3]; 0.032 µM): 0.982 | viability ([3]; 0.16 µM): 0.78 | viability ([3]; 0.8 µM): 0.342 | viability ([3]; 4 µM): 0.117 | viability ([3]; 20 µM): 0.0641 | viability ([4]; 0.032 µM): 1 | viability ([4]; 0.16 µM): 0.972 | viability ([4]; 0.8 µM): 0.963 | viability ([4]; 4 µM): 0.583 | viability ([4]; 20 µM): 0.205 | viability ([5]; 0.032 µM): 0.988 | viability ([5]; 0.16 µM): 0.976 | viability ([5]; 0.8 µM): 0.921 | viability ([5]; 4 µM): 0.717 | viability ([5]; 20 µM): 0.34 | viability ([6]; 0.032 µM): 0.97 | viability ([6]; 0.16 µM): 0.995 | viability ([6]; 0.8 µM): 0.881 | viability ([6]; 4 µM): 0.506 | viability ([6]; 20 µM): 0.056 | viability ([7]; 0.032 µM): 1.07 | viability ([7]; 0.16 µM): 1.02 | viability ([7]; 0.8 µM): 1.1 | viability ([7]; 4 µM): 1.04 | viability ([7]; 20 µM): 1.12 | viability ([8]; 0.032 µM): 0.954 | viability ([8]; 0.16 µM): 0.936 | viability ([8]; 0.8 µM): 1.02 | viability ([8]; 4 µM): 0.881 | viability ([8]; 20 µM): 0.621 | viability ([9]; 0.032 µM): 1.01 | viability ([9]; 0.16 µM): 0.896 | viability ([9]; 0.8 µM): 0.738 | viability ([9]; 4 µM): 0.433 | viability ([9]; 20 µM): 0.282 | viability ([10]; 0.032 µM): 1.03 | viability ([10]; 0.16 µM): 1.02 | viability ([10]; 0.8 µM): 0.977 | viability ([10]; 4 µM): 0.911 | viability ([10]; 20 µM): 0.306 | viability ([11]; 0.032 µM): 1.06 | viability ([11]; 0.16 µM): 0.946 | viability ([11]; 0.8 µM): 1.02 | viability ([11]; 4 µM): 0.733 | viability ([11]; 20 µM): 0.101 | viability ([12]; 0.032 µM): 1.04 | viability ([12]; 0.16 µM): 0.956 | viability ([12]; 0.8 µM): 0.875 | viability ([12]; 4 µM): 0.78 | viability ([12]; 20 µM): 0.693 | viability ([13]; 0.032 µM): 0.998 | viability ([13]; 0.16 µM): 0.985 | viability ([13]; 0.8 µM): 0.984 | viability ([13]; 4 µM): 0.608 | viability ([13]; 20 µM): 0.215 | viability ([14]; 0.032 µM): 1.02 | viability ([14]; 0.16 µM): 0.99 | viability ([14]; 0.8 µM): 1.03 | viability ([14]; 4 µM): 1.01 | viability ([14]; 20 µM): 0.974 | viability ([15]; 0.032 µM): 0.984 | viability ([15]; 0.16 µM): 0.964 | viability ([15]; 0.8 µM): 0.931 | viability ([15]; 4 µM): 0.816 | viability ([15]; 20 µM): 0.675 | viability ([16]; 0.032 µM): 0.875 | viability ([16]; 0.16 µM): 0.89 | viability ([16]; 0.8 µM): 0.744 | viability ([16]; 4 µM): 0.621 | viability ([16]; 20 µM): 0.493 | viability ([17]; 0.032 µM): 1.1 | viability ([17]; 0.16 µM): 1.07 | viability ([17]; 0.8 µM): 0.706 | viability ([17]; 4 µM): 0.425 | viability ([17]; 20 µM): 0.45 | viability ([18]; 0.032 µM): 1.17 | viability ([18]; 0.16 µM): 0.988 | viability ([18]; 0.8 µM): 0.987 | viability ([18]; 4 µM): 0.929 | viability ([18]; 20 µM): 0.949 | viability ([19]; 0.032 µM): 1.02 | viability ([19]; 0.16 µM): 1.01 | viability ([19]; 0.8 µM): 0.972 | viability ([19]; 4 µM): 0.868 | viability ([19]; 20 µM): 0.61 | viability ([20]; 0.032 µM): 0.962 | viability ([20]; 0.16 µM): 0.887 | viability ([20]; 0.8 µM): 1.01 | viability ([20]; 4 µM): 0.91 | viability ([20]; 20 µM): 0.827
